Laboratory results: PubChem BioAssay AID330 (DTP/NCI, 2004)
Where “and” joins values, the source holds several entries; their conditions need not be identical. Equal entries are not always repeated. Toxic doses and inconclusive results are not listed.

System: P388 leukemia ip, CD2F1 mice, survival T/C
Test: NCI In Vivo Anticancer Drug Screen. Data for tumor model P388 Leukemia (intraperitoneal) in CD2F1 (CDF1) mice
Settings: endpoint: median survival time, higher = longer survival
Summary of the method: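 Mice carrying the transplanted tumor received test compound or vehicle. Survival was recorded in each group, and the value is the treated-group measurement divided by that of the vehicle-treated control group.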

[1] = dose: 50.0 mg/kg/injection, schedule: Q01DX005 (ip), vehicle: saline with Tween-80
[2] = dose: 100.0 mg/kg/injection, schedule: Q01DX005 (ip), vehicle: saline with Tween-80
[3] = dose: 120.0 mg/kg/injection, schedule: Q01DX005 (ip), vehicle: saline with Tween-80
[4] = dose: 240.0 mg/kg/injection, schedule: Q01DX005 (ip), vehicle: saline with Tween-80
[5] = dose: 100.0 mg/kg/injection, schedule: Q01DX001 (ip), vehicle: saline with Tween-80
[6] = dose: 200.0 mg/kg/injection, schedule: Q01DX001 (ip), vehicle: saline with Tween-80
[7] = dose: 400.0 mg/kg/injection, schedule: Q01DX001 (ip), vehicle: saline with Tween-80
[8] = dose: 50.0 mg/kg/injection, schedule: Q01DX005 (ip), vehicle: Klucel (hydroxypropylcellulose) (HPC)
[9] = dose: 100.0 mg/kg/injection, schedule: Q01DX005 (ip), vehicle: Klucel (hydroxypropylcellulose) (HPC)
[10] = dose: 200.0 mg/kg/injection, schedule: Q01DX005 (ip), vehicle: Klucel (hydroxypropylcellulose) (HPC)
[11] = dose: 60.0 mg/kg/injection, schedule: Q01DX005 (ip), vehicle: saline with Tween-80

`CC(=O)NCc1ccc(N2C(N)=NC(N)=NC2(C)C)cc1` was tested, and the T/C (dose: 25.0 mg/kg/injection, schedule: Q04DX002 (ip), vehicle: saline) was 100 % of control, the T/C (dose: 50.0 mg/kg/injection, schedule: Q04DX002 (ip), vehicle: saline) was 116 % of control and the T/C (dose: 100.0 mg/kg/injection, schedule: Q04DX002 (ip), vehicle: saline) was 100 % of control.
For `CCCCN1C=C(C)N(CCCC)CC1`, the T/C (dose: 12.5 mg/kg/injection, schedule: Q01DX005 (ip), vehicle: saline with Tween-80) was 109 % of control, the T/C (dose: 25.0 mg/kg/injection, schedule: Q01DX005 (ip), vehicle: saline with Tween-80) was 114 % of control and the T/C [1] was 121 % of control and 123 % of control. For the same compound, the T/C [2] was 116 % of control.
In the case of `COc1cc(C(=O)CC(=O)Cc2ccc3ccccc3n2)cc(OC)c1OC`, the T/C (dose: 0.93 mg/kg/injection, schedule: Q01DX005 (ip), vehicle: saline with Tween-80) is reported as 102 % of control, the T/C (dose: 1.88 mg/kg/injection, schedule: Q01DX005 (ip), vehicle: saline with Tween-80) is reported as 103 % of control and the T/C (dose: 3.75 mg/kg/injection, schedule: Q01DX005 (ip), vehicle: saline with Tween-80) is reported as 98 % of control. For the same compound, the T/C [3] was 90 % of control and the T/C [4] was 97 % of control.
In the case of `COc1cccc2c1C(=O)c1c(O)c3c(c(O)c1C2=O)CC(O)(c1cscn1)CC3OC1CC(N)C(O)C(C)O1` (stereo unspecified), the T/C (dose: 25.0 mg/kg/injection, schedule: Q04DX003 (ip), vehicle: water) is reported as 118 % of control, the T/C (dose: 50.0 mg/kg/injection, schedule: Q04DX003 (ip), vehicle: water) is reported as 157 % of control and the T/C (dose: 100.0 mg/kg/injection, schedule: Q04DX003 (ip), vehicle: water) is reported as 124 % of control.
For `O=[N+]([O-])c1ccc(C2OC(c3ccncc3)=NC2CO)cc1` (stereo unspecified), the T/C (dose: 50.0 mg/kg/injection, schedule: Q01DX009 (ip), vehicle: saline) was 97 % of control, the T/C (dose: 100.0 mg/kg/injection, schedule: Q01DX009 (ip), vehicle: saline) was 91 % of control and the T/C (dose: 200.0 mg/kg/injection, schedule: Q01DX009 (ip), vehicle: saline) was 106 % of control.
`Cc1[nH]c2cc3c(cc2c(=O)c1Cc1c(C)[nH]c2cc4c(cc2c1=O)CCCC4)CCCC3` was tested, and the T/C (dose: 100.0 mg/kg/injection, schedule: Q01DX001 (ip), vehicle: Klucel (hydroxypropylcellulose) (HPC)) was 87 % of control, the T/C (dose: 200.0 mg/kg/injection, schedule: Q01DX001 (ip), vehicle: Klucel (hydroxypropylcellulose) (HPC)) was 88 % of control and the T/C (dose: 400.0 mg/kg/injection, schedule: Q01DX001 (ip), vehicle: Klucel (hydroxypropylcellulose) (HPC)) was 87 % of control.
In the case of `COc1cc2c(cc1OC)C(Cc1ccc3cc(OC)c(OC)cc3c1)=NCC2`, the T/C (dose: 100.0 mg/kg/injection, schedule: Q01DX009 (ip), vehicle: saline with Tween-80) is reported as 90 % of control, the T/C (dose: 200.0 mg/kg/injection, schedule: Q01DX009 (ip), vehicle: saline with Tween-80) is reported as 90 % of control and the T/C (dose: 400.0 mg/kg/injection, schedule: Q01DX009 (ip), vehicle: saline with Tween-80) is reported as 100 % of control.
With `COC(=O)c1c2ccccc2cn1C` the T/C (dose: 100.0 mg/kg/injection, schedule: Q04DX002 (ip), vehicle: saline with Tween-80) was 100 % of control and the T/C (dose: 200.0 mg/kg/injection, schedule: Q04DX002 (ip), vehicle: saline with Tween-80) was 102 % of control.
With `CN1CCC(/C=C/c2ccc(Cl)c(Cl)c2)CN1` (stereo unspecified) (tested in a mixture with another compound) the T/C (dose: 25.0 mg/kg/injection, schedule: Q01DX001 (ip), vehicle: saline) was 100 % of control and 95 % of control, the T/C (dose: 50.0 mg/kg/injection, schedule: Q01DX001 (ip), vehicle: saline) was 100 % of control and the T/C (dose: 100.0 mg/kg/injection, schedule: Q01DX001 (ip), vehicle: saline) was 104 % of control and 93 % of control. For the same compound, the T/C (dose: 100.0 mg/kg/injection, schedule: Q01DX001 (ip), vehicle: suspension in saline) was 116 % of control.
For `CC1(C)OC(=O)C=C[C@]2(C)[C@H]3CC[C@]4(C)C(=CCC4c4ccoc4)[C@]3(C)[C@H](O)C[C@@H]12` (stereo partly specified), the T/C (dose: 11.25 mg/kg/injection, schedule: Q01DX005 (ip), vehicle: Klucel (hydroxypropylcellulose) (HPC)) was 101 % of control, the T/C (dose: 22.5 mg/kg/injection, schedule: Q01DX005 (ip), vehicle: Klucel (hydroxypropylcellulose) (HPC)) was 98 % of control and the T/C (dose: 45.0 mg/kg/injection, schedule: Q01DX005 (ip), vehicle: Klucel (hydroxypropylcellulose) (HPC)) was 94 % of control. The T/C (dose: 90.0 mg/kg/injection, schedule: Q01DX005 (ip), vehicle: Klucel (hydroxypropylcellulose) (HPC)) was 98 % of control and the T/C (dose: 180.0 mg/kg/injection, schedule: Q01DX005 (ip), vehicle: Klucel (hydroxypropylcellulose) (HPC)) was 91 % of control.
`COc1cccc(-c2c(C#N)c(=O)n(C)c3nncn23)c1` was tested, and the T/C [5] was 97 % of control, the T/C [6] was 94 % of control and the T/C [7] was 91 % of control.
With `O=C1C2CC=C3CCCC3C2C(=O)C2CC=C3CCCC3C12` (stereo unspecified) the T/C (dose: 7.5 mg/kg/injection, schedule: Q01DX009 (ip), vehicle: saline with Tween-80) was 105 % of control, the T/C (dose: 15.0 mg/kg/injection, schedule: Q01DX009 (ip), vehicle: saline with Tween-80) was 102 % of control and the T/C (dose: 30.0 mg/kg/injection, schedule: Q01DX009 (ip), vehicle: saline with Tween-80) was 106 % of control.
For `COc1cc(N=Nc2ccc(N=Nc3ccc4cc(S(=O)(=O)O)cc(S(=O)(=O)O)c4c3)c(C)c2)c(C)cc1NC(=O)c1ccc(NC(=O)c2ccc(N)cc2)cc1`, the T/C (dose: 25.0 mg/kg/injection, schedule: Q01DX005 (ip), vehicle: Klucel (hydroxypropylcellulose) (HPC)) was 103 % of control and 108 % of control, the T/C [8] was 107 % of control and 111 % of control and 117 % of control and the T/C [9] was 103 % of control and 116 % of control. For the same compound, the T/C [10] was 107 % of control and 112 % of control and 97 % of control.
In the case of `CC1=C(/C=C/C(C)=C/C=C/C(C)=C/C=C/C=C(C)/C=C/C=C(C)/C=C/C2=C(C)C(=O)CCC2(C)C)C(C)(C)CCC1=O`, the T/C [11] is reported as 98 % of control, the T/C [3] is reported as 88 % of control and the T/C [4] is reported as 91 % of control.
In the case of `COc1ccc(C2CC(=O)c3c(O)cc(OC4OC(CO)C(O)C(O)C4OC4OC(C)C(O)C(O)C4O)cc3O2)cc1O` (stereo unspecified), the T/C [1] is reported as 102 % of control, the T/C [2] is reported as 100 % of control and the T/C (dose: 200.0 mg/kg/injection, schedule: Q01DX005 (ip), vehicle: saline with Tween-80) is reported as 92 % of control.
In the case of `O=C(CCCCCCC(=O)ON1C(=O)CCC1=O)ON1C(=O)CCC1=O`, the T/C [1] is reported as 122 % of control.
In the case of `Cc1cccc(-n2nc(C(=O)O)c(=O)[nH]c2=O)c1`, the T/C [5] is reported as 104 % of control, the T/C [6] is reported as 99 % of control and the T/C [7] is reported as 95 % of control.
`COc1ccc(C(C)c2cc3c(cc2OCC(C)=O)OCO3)cc1` (stereo unspecified) was tested, and the T/C [11] was 97 % of control, the T/C [3] was 94 % of control and the T/C [4] was 94 % of control.
With `CC(=O)OC1C=CC2OC2(COC(=O)c2ccccc2)C1OC(C)=O` (stereo unspecified) the T/C (dose: 2.5 mg/kg/injection, schedule: Q01DX009 (ip), vehicle: Klucel (hydroxypropylcellulose) (HPC)) was 87 % of control, the T/C (dose: 5.0 mg/kg/injection, schedule: Q01DX009 (ip), vehicle: Klucel (hydroxypropylcellulose) (HPC)) was 99 % of control and the T/C (dose: 10.0 mg/kg/injection, schedule: Q01DX009 (ip), vehicle: Klucel (hydroxypropylcellulose) (HPC)) was 92 % of control. The T/C (dose: 28.75 mg/kg/injection, schedule: Q01DX005 (ip), vehicle: saline + Tween-80 + alcohol) was 100 % of control, the T/C (dose: 57.5 mg/kg/injection, schedule: Q01DX005 (ip), vehicle: saline + Tween-80 + alcohol) was 102 % of control and the T/C (dose: 115.0 mg/kg/injection, schedule: Q01DX005 (ip), vehicle: saline + Tween-80 + alcohol) was 100 % of control. For the same compound, the T/C (dose: 230.0 mg/kg/injection, schedule: Q01DX005 (ip), vehicle: saline + Tween-80 + alcohol) was 100 % of control.
`CCOC(=O)c1c(NCCO)c(-c2ccccc2)c(=O)n2c1[nH]c1ccccc12` was tested, and the T/C [5] was 100 % of control, the T/C [6] was 99 % of control and the T/C [7] was 87 % of control.
In the case of `O=C(O)c1ccnc2c1ccc1ccccc12`, the T/C (dose: 100.0 mg/kg/injection, schedule: Q04DX002 (ip), vehicle: Klucel (hydroxypropylcellulose) (HPC)) is reported as 103 % of control and the T/C (dose: 200.0 mg/kg/injection, schedule: Q04DX002 (ip), vehicle: Klucel (hydroxypropylcellulose) (HPC)) is reported as 94 % of control.
`C1CN2CCO[Si](CC[Si]34OCCN(CCO3)CCO4)(O1)OCC2` was tested, and the T/C [8] was 106 % of control, the T/C [9] was 113 % of control and the T/C [10] was 94 % of control.
`CC(=O)OCC(COC(C)=O)(CN1C(=O)c2ccccc2C1=O)CN1C(=O)c2ccccc2C1=O` was tested, and the T/C [11] was 100 % of control, the T/C [3] was 102 % of control and the T/C [4] was 102 % of control.
With `CC1CCCC(C)N1C(=O)c1ccccc1` (stereo unspecified) the T/C [11] was 98 % of control, the T/C [3] was 97 % of control and the T/C [4] was 96 % of control.
With `[B-][N+](C)(C)C` the T/C [1] was 98 % of control and the T/C [2] was 98 % of control.
